# Source: ChEMBL document CHEMBL1135835, “Biological activity of the tryprostatins and their diastereomers on human carcinoma cell lines” (2002)
# Experiments:
# Format in all cases: functional
# PC-3 [1] = test: Growth inhibitory activity against PC-3 (human prostate) cancer cell line at 100 uM dose.
# PC-3 [2] = test: Growth inhibitory activity against PC-3 (human prostate) cancer cell line at 10 uM dose.
# MCF7 [3] = test: Growth inhibitory activity against MCF-7 (human breast) cancer cell line at 10 uM dose.
# NCI-H520 [4] = test: Growth inhibitory activity against H520 (human lung) cancer cell line at 10 uM dose
# MCF7 [5] = test: Growth inhibitory activity against MCF-7 (human breast) cancer cell line at 100 uM dose.
# NCI-H520 [6] = test: Growth inhibitory activity against H520 (human lung) cancer cell line at 100 uM dose.
# NCI-H522 = test: Growth inhibitory activity against NCI-H522 (human lung) cancer cell line
# MCF7 [7] = test: Gowth inhibitory activity against MCF-7 (human lbreast) cancer cell line
# PC-3 [8] = test: Growth inhibitory activity against PC-3 (human prostate) cancer cell line
Compound,Cell survival (PC-3 [1]) [%],Cell survival (PC-3 [2]) [%],Cell survival (MCF7 [3]) [%],Cell survival (NCI-H520 [4]) [%],Cell survival (MCF7 [5]) [%],Cell survival (NCI-H520 [6]) [%],GI50 (NCI-H522) [µM],GI50 (MCF7 [7]) [µM],GI50 (PC-3 [8]) [µM]
CC(C)=CCc1[nH]c2ccccc2c1C[C@H]1NC(=O)[C@H]2CCCN2C1=O,78.9,95.8,>100,>100,>100,99.8,,,
CC(C)=CCc1[nH]c2ccccc2c1C[C@H]1NC(=O)[C@@H]2CCCN2C1=O,68.5,97.3,>100,>100,>100,76.5,,,
CC(C)=CCc1[nH]c2ccccc2c1C[C@@H]1NC(=O)[C@H]2CCCN2C1=O,0.2,59.3,73.6,88.3,0,0.1,15.8,15.9,11.9
COc1ccc2c(C[C@H]3NC(=O)[C@H]4CCCN4C3=O)c(CC=C(C)C)[nH]c2c1,83.7,>100,>100,81.7,>100,75.2,,,
COc1ccc2c(C[C@@H]3NC(=O)[C@H]4CCCN4C3=O)c(CC=C(C)C)[nH]c2c1,>100,>100,>100,99.3,99,98.5,,,
COc1ccc2c(C[C@H]3NC(=O)[C@@H]4CCCN4C3=O)c(CC=C(C)C)[nH]c2c1,>100,>100,>100,>100,>100,>100,,,
COc1ccc2c(C[C@@H]3NC(=O)[C@@H]4CCCN4C3=O)c(CC=C(C)C)[nH]c2c1 [TRYPROSTATIN A],95.6,99.2,>100,80.1,95,79.4,,,
CC(C)=CCc1[nH]c2ccccc2c1C[C@@H]1NC(=O)[C@@H]2CCCN2C1=O [TRYPROSTATIN B],68.9,95.5,88.2,77.6,66.7,60.5,,,
